The test deals with T1, BRD9 (Homo sapiens, UniProt Q9H8M2).
T1 sequence (Q9H8M2 1-597): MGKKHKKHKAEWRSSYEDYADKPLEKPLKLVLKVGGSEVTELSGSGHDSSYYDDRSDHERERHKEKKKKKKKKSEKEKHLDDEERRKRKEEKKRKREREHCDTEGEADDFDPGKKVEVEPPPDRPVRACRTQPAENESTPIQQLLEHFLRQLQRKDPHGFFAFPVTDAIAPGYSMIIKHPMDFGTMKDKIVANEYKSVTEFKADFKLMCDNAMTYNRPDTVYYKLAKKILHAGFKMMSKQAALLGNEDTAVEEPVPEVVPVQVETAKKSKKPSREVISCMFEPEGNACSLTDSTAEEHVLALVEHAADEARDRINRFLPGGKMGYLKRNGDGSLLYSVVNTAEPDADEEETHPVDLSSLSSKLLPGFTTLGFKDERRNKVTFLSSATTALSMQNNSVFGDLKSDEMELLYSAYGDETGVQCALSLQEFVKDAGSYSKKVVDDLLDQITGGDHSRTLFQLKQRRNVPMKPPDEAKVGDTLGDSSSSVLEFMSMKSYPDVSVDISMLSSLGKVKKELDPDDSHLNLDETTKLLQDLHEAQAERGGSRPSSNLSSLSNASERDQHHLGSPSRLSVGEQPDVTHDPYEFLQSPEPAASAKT
The experiment in a line: Degradation of BRD9 (IF), immunofluorescence in MV4-11 cells, 24 hours (Assay Protocol 2). Set-up: A suspension of MV4-11 cells (ATCC CRL-9591) was prepared; host or cells: MV4-11. The following applies: BRD9 degradation. It counts as cell-based. The method in brief:
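MV4-11 cells treated with compound 24 h at 37° C., then fixed, permeabilised and immunostained for BRD9 (anti-BRD9 E4Q3F, Alexa 647 secondary, Hoechst counterstain). High-content imaging quantified nuclear BRD9 signal; % BRD9 remaining normalised to DMSO and 100 nM CFT-8634 controls.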

The mark [1] stands for this setting: Assay protocol 2, read-out: DC50.
Setting [2] is: MV4-11, Assay protocol 2, read-out: Dmax.

Molecules are shown by their SMILES. Where two headings read alike, the source gives them in different places. A value given as a limit tells only on which side of the number the result lay.

One may read the DC50 as the concentration at which degradation of the target reaches its halfway point. In general, Dmax refers to the greatest extent of degradation seen.

As to `COc1cc(-c2cn(C)c(=O)c(C)c2C)cc(OC)c1CN1CCCN(c2ccc3c(c2)[C@@H](C)N(C(=O)/C(C#N)=C/C(C)(C)CF)CC3)CC1` (mixture of isomers) [Compound C69, (E/Z)-2-(7-(4-(2,6-dimethoxy-4-(1,4,5-trimethyl-6-oxo-1,6-dihydropyridin-3-yl)benzyl)-1,4-diazepan-1-yl)-1-methyl-1,2,3,4-tetrahydroisoquinoline-2-carbonyl)-5-fluoro-4,4-dimethylpent-2-enenitrile], the DC50 under setting [1] fell in the range of 10 to 25 nM. Also, the Dmax under setting [2] was 40 to 70%.
As to `COc1cc(-c2cn(C)c(=O)c(C)c2C)cc(OC)c1CN1CCN(Cc2cccc3c2CCN(C(=O)/C(C#N)=C\C24CC(OC)(C2)C4)C3C)C2(CC2)C1` (mixture of isomers) [Compound B141, (E/Z)-2-(5-((7-(2,6-dimethoxy-4-(1,4,5-trimethyl-6-oxo-1,6-dihydropyridin-3-yl)benzyl)-4,7-diazaspiro[2.5]octan-4-yl)methyl)-1-methyl-1,2,3,4-tetrahydroisoquinoline-2-carbonyl)-3-(3-methoxybicyclo[1.1.1]pentan-1-yl)acrylonitrile], the DC50 under setting [1] was below 1.25 nM. The maximal degradation (Dmax) under setting [2] was above 75%.
As for `COc1cc(-c2cn(C)c(=O)c(C)c2C)cc(OC)c1CN1CCN(Cc2ccc3c(c2)[C@H](C)N(C(=O)/C(C#N)=C/C(C)(C)CF)CC3)CC12CC2` (single isomer, unassigned) [Compound C33], the DC50 under setting [1] fell in the range of 1.25 to 10 nM. In addition, under setting [2], the Dmax was above 75%.
In the case of `COc1cc(-c2cn(C)c(=O)c(C)c2C)ccc1OC1CCC(Cc2cccc3c2CCN(C(=O)/C(C#N)=C/C(C)(C)N2CCN(C)CC2)C3C)CC1` (stereo not shown) [Compound C50], the 50% degradation concentration (DC50) under setting [1] was 25 to 1000 nM. Moreover, the Dmax under setting [2] lay within 70 to 75%.
As to `COc1cc(-c2cn(C)c(=O)c(C)c2C)cc(OC)c1CN1CCN(Cc2cccc3c2CCN(C(=O)/C(C#N)=C/c2cccc(C#N)c2)C3C)CC1` (mixture of isomers) [Compound B74, (E/Z)-3-(2-cyano-3-(5-((4-(2,6-dimethoxy-4-(1,4,5-trimethyl-6-oxo-1,6-dihydropyridin-3-yl)benzyl)piperazin-1-yl)methyl)-1-methyl-3,4-dihydroisoquinolin-2(1H)-yl)-3-oxoprop-1-en-1-yl) benzonitrile], the DC50 under setting [1] was below 1.25 nM. For the same compound, the Dmax under setting [2] lay within 40 to 70%.
On to `COc1cc(-c2cn(C)c(=O)c(C)c2C)cc(OC)c1CN1CCN(Cc2cccc3c2CCN(C(=O)/C(C#N)=C/C(C)(C)C)C3C2CC2)C2(CC2)C1` (mixture of isomers) [Compound C16, (E/Z)-2-(1-cyclopropyl-5-((7-(2,6-dimethoxy-4-(1,4,5-trimethyl-6-oxo-1,6-dihydropyridin-3-yl)benzyl)-4,7-diazaspiro[2.5]octan-4-yl)methyl)-1,2,3,4-tetrahydroisoquinoline-2-carbonyl)-4,4-dimethylpent-2-enenitrile], for which the DC50 under setting [1] was below 1.25 nM. Besides, the Dmax under setting [2] is above 75%.
Taken in the same sequence, the figures for `COc1cc(-c2cn(C)c(=O)c(C)c2C)cc(OC)c1CN1CCN(Cc2ccc3c(c2)[C@@H](C)N(C(=O)/C(C#N)=C/C2(OC)CC2)CC3)C2(CC2)C1` (single isomer, unassigned) [Compound C37, (E/Z)-2-(7-((7-(2,6-dimethoxy-4-(1,4,5-trimethyl-6-oxo-1,6-dihydropyridin-3-yl)benzyl)-4,7-diazaspiro[2.5]octan-4-yl)methyl)-1-methyl-1,2,3,4-tetrahydroisoquinoline-2-carbonyl)-3-(1-methoxycyclopropyl)acrylonitrile] were below 1.25 nM and above 75%.
In the case of `COc1cc(-c2cn(C)c(=O)c(C)c2C)cc(OC)c1CN1CCN(Cc2ccc3c(c2)[C@H](C)N(C(=O)/C(C#N)=C/C(C)(C)C)CC3)CC12CC2` (mixture of isomers) [Compound B200, (E/Z)-2-(7-((4-(2,6-dimethoxy-4-(1,4,5-trimethyl-6-oxo-1,6-dihydropyridin-3yl)benzyl)-4,7-diazaspiro[2.5]octan-7-yl)methyl)-1-methyl-1,2,3,4-tetrahydroisoquinoline-2-carbonyl)-4,4-dimethylpent-2-enenitrile], under setting [1], the DC50 was 1.25 to 10 nM. Moreover, under setting [2], the Dmax is above 75%.
`COc1ccc(F)c(/C=C(\C#N)C(=O)N2CCc3c(CN4CCN(Cc5c(OC)cc(-c6cn(C)c(=O)c(C)c6C)cc5OC)CC4)cccc3C2C)c1` (mixture of isomers) [Compound B93, (E/Z)-2-(5-((4-(2,6-dimethoxy-4-(1,4,5-trimethyl-6-oxo-1,6-dihydropyridin-3-yl)benzyl)piperazin-1-yl)methyl)-1-methyl-1,2,3,4-tetrahydroisoquinoline-2-carbonyl)-3-(2-fluoro-5-methoxyphenyl)acrylonitrile]: under setting [1], the DC50 lay in the range of 1.25 to 10 nM. Under setting [2], the Dmax fell in the range of 40 to 70%.
`CC[C@@H]1c2cccc(CN3CCN(Cc4c(OC)cc(-c5cn(C)c(=O)c(C)c5C)cc4OC)C4(CC4)C3)c2CCN1C(=O)/C(C#N)=C/C(C)(C)C` (single isomer, unassigned) [Compound C91, (E/Z)-2-(5-((4-(2,6-dimethoxy-4-(1,4,5-trimethyl-6-oxo-1,6-dihydropyridin-3-yl)benzyl)-4,7-diazaspiro[2.5]octan-7-yl)methyl)-1-ethyl-1,2,3,4-tetrahydroisoquinoline-2-carbonyl)-4,4-dimethylpent-2-enenitrile]: the DC50 under setting [1] is below 1.25 nM. For the same compound, under setting [2], the Dmax was above 75%.
As for `COc1cc(-c2cn(C)c(=O)c(C)c2C)cc(OC)c1CN1CCN(Cc2cccc3c2CCN(C(=O)/C(C#N)=C/C(C)(C)C)C3C)C(C(C)C)C1` (mixture of isomers) [Compound B136, (E/Z)-2-(5-((4-(2,6-dimethoxy-4-(1,4,5-trimethyl-6-oxo-1,6-dihydropyridin-3-yl)benzyl)-2-isopropylpiperazin-1-yl)methyl)-1-methyl-1,2,3,4-tetrahydroisoquinoline-2-carbonyl)-4,4-dimethylpent-2-enenitrile], the DC50 under setting [1] fell in the range of 1.25 to 10 nM. The Dmax under setting [2] is above 75%.
As to `COc1cc(-c2cn(C)c(=O)c(C)c2C)ccc1O[C@H]1CC[C@@H](Nc2cccc3c2CCN(C(=O)/C(C#N)=C/C(C)(C)C)C3C)CC1` (stereo partly shown) [Compound C56], the DC50 under setting [1] lay within 25 to 1000 nM. Also, the Dmax under setting [2] was above 75%.
`COc1cc(-c2cn(C)c(=O)c(C)c2C)cc(OC)c1CN1CCC2(CC1)CCN(c1cccc3c1CCN(C(=O)/C(C#N)=C/C(C)(C)CF)[C@@H]3C)C2` (mixture of isomers) [Compound C48, (E/Z)-2-(5-(8-(2,6-dimethoxy-4-(1,4,5-trimethyl-4-oxo-1,6-dihydropyridin-3-yl)benzyl)-2,8-diazaspiro[4.5]decan-2-yl)-1-methyl-1,2,3,4-tetrahydroisoquinoline-2-carbonyl)-5-fluoro-4,4-dimethylpent-2-enenitrile]: the DC50 under setting [1] lay in the range of 1.25 to 10 nM. Besides, under setting [2], the Dmax was above 75%.
For `COc1cc(-c2cn(C)c(=O)c(C)c2C)cc(OC)c1CN1CCC(Cc2cccc3c2CCN(C(=O)/C(C#N)=C/C(C)(C)C)C3C)CC1` (mixture of isomers) [Compound B156, (E/Z)-2-(5-((1-(2,6-dimethoxy-4-(1,4,5-trimethyl-6-oxo-1,6-dihydropyridin-3-yl)benzyl)piperidin-4-yl)methyl)-1-methyl-1,2,3,4-tetrahydroisoquinoline-2-carbonyl)-4,4-dimethylpent-2-enenitrile], under setting [1], the DC50 is 1.25 to 10 nM. The Dmax under setting [2] lay in the range of 40 to 70%.
Turning to `COc1cc(-c2cn(C)c(=O)c(C)c2C)cc(OC)c1CN1CCCN(Cc2ccc3c(c2)[C@@H](C)N(C(=O)/C(C#N)=C/C(C)(C)C)CC3)CC1` (single isomer, unassigned) [Compound C107], under setting [1], the DC50 lay in the range of 10 to 25 nM. The Dmax under setting [2] was in the range of 40 to 70%.
With `COc1cc(-c2cn(C)c(=O)c(C)c2C)cc(OC)c1CN1CCN(C(=O)[C@H]2CN(C(=O)/C(C#N)=C/C(C)(C)C)C[C@@H]2C)CC1` [Compound B214], where the note is “MV4-11, Table 4, determined according to Assay Protocol 2, read-out: Dmax^2”, the Dmax lay in the range of 50 to 70%. Also, the DC50 (Table 4, determined according to Assay Protocol 2, read-out: DC50^2) was above 200 nM.
On to `COc1cc(-c2cn(C)c(=O)c(C)c2C)cc(OC)c1CN1CCN(Cc2ccc3c(c2)[C@@H](C(C)C)N(C(=O)/C(C#N)=C/C(C)(C)CF)CC3)C2(CC2)C1` (single isomer, unassigned) [Compound C97, (E/Z)-2-(7-((7-(2,6-dimethoxy-4-(1,4,5-trimethyl-6-oxo-1,6-dihydropyridin-3-yl)benzyl)-4,7-diazaspiro[2.5]octan-4-yl)methyl)-1-isopropyl-1,2,3,4-tetrahydroisoquinoline-2-carbonyl)-5-fluoro 4,4-dimethylpent-2-enenitrile], for which the DC50 under setting [1] was 10 to 25 nM. In addition, the Dmax under setting [2] is 70 to 75%.

Source of the values: patent publication US20260092061A1, “COMPOUNDS FOR TARGETED PROTEIN DEGRADATION” (Amphista Therapeutics Limited, priority 2022, published 2026).
